Measurements reported in ChEMBL document CHEMBL1159246, “Further Structural Studies on the Petroformynes” (J Nat Prod, 1995).

Test system: Artemia salina
Assay: Toxicity in Artemia salina after 24 hrs
Format: organism-based
Conditions: in vivo

Row | SMILES | LD50 [ppm]
1 | C#CCCCCCCCCCCCCCCCC/C=C\CCCCC#CC(=O)C#CCCCC/C=C\CCCCCC/C=C/C(O)C#C (centres undefined) | 6.3
2 | C#CC(=O)/C=C/CC/C=C\CCCC/C=C\CCC#CC(O)C#C/C=C/CC/C=C\CCCCCCCCCCCCC/C=C/C(=O)C#C (centres undefined) | 5
3 | C#CCCCCCCCCCCCCCCCC/C=C\CC/C=C\C#CC(O)C#CCCCC/C=C\CCCCCCCCC(O)C#C (centres undefined) | 6.8
4 | C#CCCCCCCCCCCCCCCCC/C=C\CC/C=C/C#CC(=O)C#CCCCC/C=C\CCCCCC/C=C/C(O)C#C (centres undefined) | 1
5 | C#C/C=C\CCCCCCCCCCCCCC/C=C\CCCCC#CC(O)C#CCCCC/C=C\CCCCCC/C=C/C(=O)C#C (centres undefined) | 0.5
6 | C#CC(=O)/C=C/CCCCCC/C=C\CCCCC#CC(O)C#C/C=C/CC/C=C\CCCCCCCCCCCCC/C=C/C(=O)C#C (centres undefined) | 0.18
7 | C#CCCCCCCCCCCCCCCCC/C=C\CC/C=C\C#CC(O)C#CCCCC/C=C\CCCCCC/C=C/C(O)C#C (centres undefined) [ISOPETROFORMYNE 3] | 0.26
8 | C#C/C=C\CCCCCCCCCCCCCC/C=C\CC/C=C\C#CC(O)C#CCCCC/C=C\CCCCCC/C=C/C(O)C#C (centres undefined) [ISOPETROFORMYNE 4] | 0.6
9 | C#CC(=O)/C=C/CC/C=C\CCCC/C=C\CCC#CC(O)C#C/C=C/CC/C=C\CCCCCCCCCCCCC/C=C/C(O)C#C (centres undefined) [PETROFORMYNE 8] | 0.77
